Assay: xn = mol fraction of the nth substance listed
Settings: Fluid (supercritical or subcritical phases), x1 = 0.97; for mass density: Vibrating tube method; for speed of sound: 293.13 K, Frequency=5 MHz, Pulse-echo method

O=C=O [carbon dioxide] + CO
Settings	mass density [kg/m3]
283.15 K, 16550 kPa	963.02
283.15 K, 16575 kPa	963.18
283.15 K, 16600 kPa	963.26
283.15 K, 16625 kPa	963.43
283.15 K, 16650 kPa	963.51
283.15 K, 16675 kPa	963.66
283.15 K, 16700 kPa	963.77
283.15 K, 16725 kPa	963.92
283.15 K, 16750 kPa	964
283.15 K, 16775 kPa	964.16
283.15 K, 16800 kPa	964.28
283.15 K, 16825 kPa	964.4
283.15 K, 16850 kPa	964.49
283.15 K, 16875 kPa	964.65
283.15 K, 16900 kPa	964.79
283.15 K, 16925 kPa	964.88
283.15 K, 16950 kPa	964.99
283.15 K, 16975 kPa	965.14
283.15 K, 17000 kPa	965.28
283.15 K, 17025 kPa	965.37
283.15 K, 17050 kPa	965.46
283.15 K, 17075 kPa	965.62
283.15 K, 17100 kPa	965.75
283.15 K, 17125 kPa	965.87
283.15 K, 17150 kPa	965.97
283.15 K, 17175 kPa	966.11
283.15 K, 17200 kPa	966.25
283.15 K, 17225 kPa	966.36
283.15 K, 17250 kPa	966.51
283.15 K, 17275 kPa	966.6
283.15 K, 17300 kPa	966.7
283.15 K, 17325 kPa	966.85
283.15 K, 17350 kPa	966.97
283.15 K, 17375 kPa	967.09
283.15 K, 17400 kPa	967.17
283.15 K, 17425 kPa	967.31
283.15 K, 17450 kPa	967.41
283.15 K, 17475 kPa	967.57
283.15 K, 17500 kPa	967.66
283.15 K, 17525 kPa	967.82
283.15 K, 17550 kPa	967.9
283.15 K, 17575 kPa	968.06
283.15 K, 17600 kPa	968.15
283.15 K, 17625 kPa	968.24
283.15 K, 17650 kPa	968.4
283.15 K, 17675 kPa	968.48
283.15 K, 17700 kPa	968.64
283.15 K, 17725 kPa	968.78
283.15 K, 17750 kPa	968.88
283.15 K, 17775 kPa	968.98
283.15 K, 17800 kPa	969.12
283.15 K, 17825 kPa	969.25
283.15 K, 17850 kPa	969.37
283.15 K, 17875 kPa	969.46
283.15 K, 17900 kPa	969.6
283.15 K, 17925 kPa	969.69
283.15 K, 17950 kPa	969.8
283.15 K, 17975 kPa	969.94
283.15 K, 18000 kPa	970.08
283.15 K, 18025 kPa	970.18
283.15 K, 18050 kPa	970.31
283.15 K, 18075 kPa	970.43
283.15 K, 18100 kPa	970.52
283.15 K, 18125 kPa	970.66
283.15 K, 18150 kPa	970.8
283.15 K, 18175 kPa	970.91
283.15 K, 18200 kPa	970.99
283.15 K, 18225 kPa	971.16
283.15 K, 18250 kPa	971.25
283.15 K, 18275 kPa	971.39
283.15 K, 18300 kPa	971.48
283.15 K, 18325 kPa	971.57
283.15 K, 18350 kPa	971.73
283.15 K, 18375 kPa	971.85
283.15 K, 18400 kPa	971.98
283.15 K, 18425 kPa	972.05
283.15 K, 18450 kPa	972.17
283.15 K, 18475 kPa	972.3
283.15 K, 18500 kPa	972.43
283.15 K, 18525 kPa	972.54
283.15 K, 18550 kPa	972.62
283.15 K, 18575 kPa	972.76
283.15 K, 18600 kPa	972.9
283.15 K, 18625 kPa	973.03
283.15 K, 18650 kPa	973.11
283.15 K, 18675 kPa	973.21
283.15 K, 18700 kPa	973.35
283.15 K, 18725 kPa	973.46
283.15 K, 18750 kPa	973.6
283.15 K, 18775 kPa	973.72
283.15 K, 18800 kPa	973.84
283.15 K, 18825 kPa	973.96
283.15 K, 18850 kPa	974.07
283.15 K, 18875 kPa	974.17
283.15 K, 18900 kPa	974.28
283.15 K, 18925 kPa	974.41
283.15 K, 18950 kPa	974.55
283.15 K, 18975 kPa	974.63
283.15 K, 19000 kPa	974.74
283.15 K, 19025 kPa	974.9
283.15 K, 19050 kPa	974.98
283.15 K, 19075 kPa	975.08
283.15 K, 19100 kPa	975.18
283.15 K, 19125 kPa	975.31
283.15 K, 19150 kPa	975.44
283.15 K, 19175 kPa	975.52
283.15 K, 19200 kPa	975.66
283.15 K, 19225 kPa	975.76
283.15 K, 19250 kPa	975.85
283.15 K, 19275 kPa	976.02
283.15 K, 19300 kPa	976.1
283.15 K, 19325 kPa	976.18
283.15 K, 19350 kPa	976.34
283.15 K, 19375 kPa	976.42
283.15 K, 19400 kPa	976.53
283.15 K, 19425 kPa	976.66
283.15 K, 19450 kPa	976.74
283.15 K, 19475 kPa	976.85
283.15 K, 19500 kPa	976.99
283.15 K, 19525 kPa	977.1
283.15 K, 19550 kPa	977.22
283.15 K, 19575 kPa	977.29
283.15 K, 19600 kPa	977.43
283.15 K, 19625 kPa	977.51
283.15 K, 19650 kPa	977.66
283.15 K, 19675 kPa	977.74
283.15 K, 19700 kPa	977.89
283.15 K, 19725 kPa	977.97
283.15 K, 19750 kPa	978.07
283.15 K, 19775 kPa	978.19
283.15 K, 19800 kPa	978.31
283.15 K, 19825 kPa	978.42
283.15 K, 19850 kPa	978.49
283.15 K, 19875 kPa	978.64
283.15 K, 19900 kPa	978.72
283.15 K, 19925 kPa	978.84
283.15 K, 19950 kPa	978.96
283.15 K, 19975 kPa	979.04
283.15 K, 20000 kPa	979.19
293.15 K, 6500 kPa	813.14
293.15 K, 6525 kPa	813.39
293.15 K, 6550 kPa	813.83
293.15 K, 6575 kPa	814.36
293.15 K, 6600 kPa	814.85
293.15 K, 6625 kPa	815.37
293.15 K, 6650 kPa	815.85
293.15 K, 6675 kPa	816.32
293.15 K, 6700 kPa	816.75
293.15 K, 6725 kPa	817.24
293.15 K, 6750 kPa	817.7
293.15 K, 6775 kPa	818.19
293.15 K, 6800 kPa	818.69
293.15 K, 6825 kPa	819.09
293.15 K, 6850 kPa	819.56
293.15 K, 6875 kPa	820.02
293.15 K, 6900 kPa	820.51
293.15 K, 6925 kPa	821
293.15 K, 6950 kPa	821.45
293.15 K, 6975 kPa	821.88
293.15 K, 7000 kPa	822.38
293.15 K, 7025 kPa	822.78
293.15 K, 7050 kPa	823.25
293.15 K, 7075 kPa	823.68
293.15 K, 7100 kPa	824.12
293.15 K, 7125 kPa	824.56
293.15 K, 7150 kPa	824.97
293.15 K, 7175 kPa	825.4
293.15 K, 7200 kPa	825.75
293.15 K, 7225 kPa	826.24
293.15 K, 7250 kPa	826.63
293.15 K, 7275 kPa	827.05
293.15 K, 7300 kPa	827.52
293.15 K, 7325 kPa	827.94
293.15 K, 7350 kPa	828.35
293.15 K, 7375 kPa	828.75
293.15 K, 7400 kPa	829.18
293.15 K, 7425 kPa	829.57
293.15 K, 7450 kPa	829.96
293.15 K, 7475 kPa	830.36
293.15 K, 7500 kPa	830.75
293.15 K, 7525 kPa	831.18
293.15 K, 7550 kPa	831.58
293.15 K, 7575 kPa	832.01
293.15 K, 7600 kPa	832.39
293.15 K, 7625 kPa	832.79
293.15 K, 7650 kPa	833.16
293.15 K, 7675 kPa	833.55
293.15 K, 7700 kPa	833.94
293.15 K, 7725 kPa	834.35
293.15 K, 7750 kPa	834.76
293.15 K, 7775 kPa	835.15
293.15 K, 7800 kPa	835.53
293.15 K, 7825 kPa	835.97
293.15 K, 7850 kPa	836.36
293.15 K, 7875 kPa	836.75
293.15 K, 7900 kPa	837.14
293.15 K, 7925 kPa	837.51
293.15 K, 7950 kPa	837.87
293.15 K, 7975 kPa	838.26
293.15 K, 8000 kPa	838.63
293.15 K, 8025 kPa	838.99
293.15 K, 8050 kPa	839.37
293.15 K, 8075 kPa	839.71
293.15 K, 8100 kPa	840.15
293.15 K, 8125 kPa	840.47
293.15 K, 8150 kPa	840.87
293.15 K, 8175 kPa	841.23
293.15 K, 8200 kPa	841.62
293.15 K, 8225 kPa	841.97
293.15 K, 8250 kPa	842.39
293.15 K, 8275 kPa	842.74
293.15 K, 8300 kPa	843.12
293.15 K, 8325 kPa	843.46
293.15 K, 8350 kPa	843.86
293.15 K, 8375 kPa	844.16
293.15 K, 8400 kPa	844.56
293.15 K, 8425 kPa	844.93
293.15 K, 8450 kPa	845.3
293.15 K, 8475 kPa	845.64
293.15 K, 8500 kPa	845.98
293.15 K, 8525 kPa	846.37
293.15 K, 8550 kPa	846.75
293.15 K, 8575 kPa	847.1

Settings	speed of sound [m/s]
20010 kPa	624.7
24930 kPa	674.5
29990 kPa	718.7
34940 kPa	755.3
39990 kPa	791.4
44940 kPa	822.9
49970 kPa	852.5
54900 kPa	879.8
59940 kPa	906
64950 kPa	930.5
69950 kPa	953.8
74980 kPa	976
80020 kPa	997.6
90010 kPa	1037.3
100010 kPa	1074.3
109950 kPa	1108.7
120040 kPa	1141.7
140050 kPa	1201.9
160040 kPa	1256.5
178780 kPa	1303.9
